Columns and labels:
in vitro = conditions: human
Vero cells = conditions: up to 100 μM R10015
resting CD4 T cells = test: FITC-phalloidin staining of F-actin after SDF-1; conditions: 100 μM pretreatment, FITC-phalloidin flow cytometry
WEE1 = WEE1 (Homo sapiens, UniProt P30291); test: Kinase profiling (Reaction Biology): WEE1
DAPK1 = DAPK1 (Homo sapiens, UniProt P53355); test: Kinase profiling (Reaction Biology): DAPK1
HIV-1(Vpr-β-lactamase) = test: BlaM-Vpr-based viral entry assay; type: cell-based; conditions: 100 μM; CEM-SS T cells
HIV-1(Env) [1] = type: cell-based
HIV-1(Env) [2] = test: 2-LTR circles by real-time PCR (nuclear migration) in CEM-SS T cells; type: cell-based
EPHA3 = EPHA3 (Homo sapiens, UniProt P29320); test: Kinase profiling (Reaction Biology): EPHA3
HIV-1(Env) [3] = type: cell-based; remark: listed apart in the source
CK1d = CK1d (Homo sapiens, UniProt P48730); test: Kinase profiling (Reaction Biology): CK1d
Chain of CK1d (P48730 whole entry): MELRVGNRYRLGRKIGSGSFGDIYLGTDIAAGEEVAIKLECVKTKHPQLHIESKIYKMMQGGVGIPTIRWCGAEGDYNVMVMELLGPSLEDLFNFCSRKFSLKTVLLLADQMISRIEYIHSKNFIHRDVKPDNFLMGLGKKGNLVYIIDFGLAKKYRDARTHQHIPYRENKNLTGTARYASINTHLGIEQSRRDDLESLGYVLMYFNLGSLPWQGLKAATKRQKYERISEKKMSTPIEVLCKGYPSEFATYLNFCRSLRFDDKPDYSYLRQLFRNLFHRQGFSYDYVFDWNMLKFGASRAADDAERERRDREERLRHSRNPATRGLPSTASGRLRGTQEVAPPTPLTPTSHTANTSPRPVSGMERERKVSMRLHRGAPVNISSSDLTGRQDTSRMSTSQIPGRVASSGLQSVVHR

PDGFRb = PDGFRb (Homo sapiens, UniProt P09619); test: Kinase profiling (Reaction Biology): PDGFRb
EBOV (Zaire) = type: cell-based, Zaire ebolavirus; conditions: HFF-1 cells, pretreated 2 h, MOI 2.5, 48 h in continuous presence
HIV-1(VSV G) = type: cell-based; conditions: 100 μM
HIV-1(NL4-3) = type: cell-based
AKT2 = AKT2 (Homo sapiens, UniProt P31751); test: Kinase profiling (Reaction Biology): AKT2
LIMK1 = LIMK1 (Homo sapiens, UniProt P53667); test: Kinase profiling (Reaction Biology): LIMK1
EGFR = EGFR (Homo sapiens, UniProt P00533); test: Kinase profiling (Reaction Biology): EGFR
Jurkat T cells = test: SDF-1-mediated chemotaxis assay (transwell); conditions: Homo sapiens, 2 h, read-out: IC50, inhibition of Jurkat T cell chemotaxis, SDF-1 40 ng/ml, 2 h, transwell
[4] = test system: VEEV-Luc (TC-83) and VEEV (TC-83); test: microbe, parasite or virus in culture; type: cell-based; conditions: Venezuelan equine encephalitis virus, Vero, read-out: IC50, inhibition of VEEV
RSK1 = RSK1 (Homo sapiens, UniProt Q15418); test: Kinase profiling (Reaction Biology): RSK1
Chain of RSK1 (Q15418 whole entry): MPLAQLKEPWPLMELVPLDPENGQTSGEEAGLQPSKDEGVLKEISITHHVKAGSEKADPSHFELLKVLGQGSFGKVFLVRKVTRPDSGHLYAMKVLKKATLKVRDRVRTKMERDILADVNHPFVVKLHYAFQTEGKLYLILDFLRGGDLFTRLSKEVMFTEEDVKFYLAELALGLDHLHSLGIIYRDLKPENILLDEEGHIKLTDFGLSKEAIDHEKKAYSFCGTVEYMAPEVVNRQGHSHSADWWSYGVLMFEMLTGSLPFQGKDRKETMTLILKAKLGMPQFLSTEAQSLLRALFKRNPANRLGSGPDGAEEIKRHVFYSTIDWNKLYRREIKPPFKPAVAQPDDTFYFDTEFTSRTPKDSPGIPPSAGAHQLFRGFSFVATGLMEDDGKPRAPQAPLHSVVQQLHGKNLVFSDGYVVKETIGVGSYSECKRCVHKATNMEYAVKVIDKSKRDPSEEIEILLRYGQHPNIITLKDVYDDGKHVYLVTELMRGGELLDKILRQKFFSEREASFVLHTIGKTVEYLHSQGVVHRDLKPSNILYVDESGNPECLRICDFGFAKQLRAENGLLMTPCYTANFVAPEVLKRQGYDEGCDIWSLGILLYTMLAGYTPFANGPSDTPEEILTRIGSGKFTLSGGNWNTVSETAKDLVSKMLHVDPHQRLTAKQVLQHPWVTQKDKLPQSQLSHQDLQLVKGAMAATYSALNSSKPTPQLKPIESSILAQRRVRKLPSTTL

TAK1 = TAK1 (Homo sapiens, UniProt O43318); test: Kinase profiling (Reaction Biology): TAK1
Chain of TAK1 (O43318 1-303 limits assumed): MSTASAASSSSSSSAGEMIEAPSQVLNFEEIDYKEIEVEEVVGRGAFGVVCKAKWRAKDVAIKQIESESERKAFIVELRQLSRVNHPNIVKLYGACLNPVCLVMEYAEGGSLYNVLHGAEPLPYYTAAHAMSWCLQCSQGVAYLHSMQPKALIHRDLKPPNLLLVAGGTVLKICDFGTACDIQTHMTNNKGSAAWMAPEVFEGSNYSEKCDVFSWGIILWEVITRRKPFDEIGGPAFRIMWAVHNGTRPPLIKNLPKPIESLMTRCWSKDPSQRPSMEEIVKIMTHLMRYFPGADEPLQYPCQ

FGFR1 = FGFR1 (Homo sapiens, UniProt P11362); test: Kinase profiling (Reaction Biology): FGFR1
HIV-1(Nef-luciferase) = test: Nef-luciferase-based viral entry assay; type: cell-based; conditions: 100 μM; data not shown
MEK1 = MEK1 (Homo sapiens, UniProt Q02750); test: Kinase profiling (Reaction Biology): MEK1
Chain of MEK1 (Q02750 whole entry): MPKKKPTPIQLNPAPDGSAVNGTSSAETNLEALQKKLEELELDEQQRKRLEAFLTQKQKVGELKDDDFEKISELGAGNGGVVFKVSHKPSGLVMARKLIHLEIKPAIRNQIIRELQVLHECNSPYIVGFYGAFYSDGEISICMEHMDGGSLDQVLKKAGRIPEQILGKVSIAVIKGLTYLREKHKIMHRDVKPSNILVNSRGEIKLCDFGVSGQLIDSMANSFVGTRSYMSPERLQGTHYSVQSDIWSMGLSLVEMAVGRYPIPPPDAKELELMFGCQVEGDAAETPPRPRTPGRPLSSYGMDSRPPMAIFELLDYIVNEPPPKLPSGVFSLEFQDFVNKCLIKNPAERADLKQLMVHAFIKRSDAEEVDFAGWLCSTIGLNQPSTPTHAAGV

p-cofilin = test: Intracellular p-cofilin staining and flow cytometry in CEM-SS T cells; conditions: 100 μM, 1 h, 0 h: 20.6%
PAK2 = PAK2 (Homo sapiens, UniProt Q13177); test: Kinase profiling (Reaction Biology): PAK2
PIM2 = PIM2 (Homo sapiens, UniProt Q9P1W9); test: Kinase profiling (Reaction Biology): PIM2
CAMK2b = CAMK2b (Homo sapiens, UniProt Q13554); test: Kinase profiling (Reaction Biology): CAMK2b
Chain of CAMK2b (Q13554 whole entry): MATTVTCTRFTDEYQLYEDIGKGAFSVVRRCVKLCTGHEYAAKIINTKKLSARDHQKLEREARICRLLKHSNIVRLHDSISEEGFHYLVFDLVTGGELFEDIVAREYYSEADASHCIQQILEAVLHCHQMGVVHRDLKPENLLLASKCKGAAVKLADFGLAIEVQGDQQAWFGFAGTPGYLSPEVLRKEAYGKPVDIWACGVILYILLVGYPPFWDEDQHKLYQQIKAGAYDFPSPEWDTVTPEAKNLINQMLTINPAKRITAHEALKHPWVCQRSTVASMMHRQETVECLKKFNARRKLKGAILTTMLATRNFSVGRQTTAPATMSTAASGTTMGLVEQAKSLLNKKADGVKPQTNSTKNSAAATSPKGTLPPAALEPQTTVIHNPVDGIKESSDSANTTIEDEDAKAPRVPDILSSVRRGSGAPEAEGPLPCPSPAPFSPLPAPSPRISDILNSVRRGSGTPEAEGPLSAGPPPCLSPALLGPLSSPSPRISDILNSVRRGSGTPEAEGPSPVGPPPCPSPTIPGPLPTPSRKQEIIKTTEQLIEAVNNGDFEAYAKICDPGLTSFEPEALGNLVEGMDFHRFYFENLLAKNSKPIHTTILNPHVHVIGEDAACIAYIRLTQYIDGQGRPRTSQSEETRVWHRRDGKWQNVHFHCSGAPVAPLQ

ABL1 = ABL1 (Homo sapiens, UniProt P00519); test: Kinase profiling (Reaction Biology): ABL1
Chain of ABL1 (P00519 whole entry): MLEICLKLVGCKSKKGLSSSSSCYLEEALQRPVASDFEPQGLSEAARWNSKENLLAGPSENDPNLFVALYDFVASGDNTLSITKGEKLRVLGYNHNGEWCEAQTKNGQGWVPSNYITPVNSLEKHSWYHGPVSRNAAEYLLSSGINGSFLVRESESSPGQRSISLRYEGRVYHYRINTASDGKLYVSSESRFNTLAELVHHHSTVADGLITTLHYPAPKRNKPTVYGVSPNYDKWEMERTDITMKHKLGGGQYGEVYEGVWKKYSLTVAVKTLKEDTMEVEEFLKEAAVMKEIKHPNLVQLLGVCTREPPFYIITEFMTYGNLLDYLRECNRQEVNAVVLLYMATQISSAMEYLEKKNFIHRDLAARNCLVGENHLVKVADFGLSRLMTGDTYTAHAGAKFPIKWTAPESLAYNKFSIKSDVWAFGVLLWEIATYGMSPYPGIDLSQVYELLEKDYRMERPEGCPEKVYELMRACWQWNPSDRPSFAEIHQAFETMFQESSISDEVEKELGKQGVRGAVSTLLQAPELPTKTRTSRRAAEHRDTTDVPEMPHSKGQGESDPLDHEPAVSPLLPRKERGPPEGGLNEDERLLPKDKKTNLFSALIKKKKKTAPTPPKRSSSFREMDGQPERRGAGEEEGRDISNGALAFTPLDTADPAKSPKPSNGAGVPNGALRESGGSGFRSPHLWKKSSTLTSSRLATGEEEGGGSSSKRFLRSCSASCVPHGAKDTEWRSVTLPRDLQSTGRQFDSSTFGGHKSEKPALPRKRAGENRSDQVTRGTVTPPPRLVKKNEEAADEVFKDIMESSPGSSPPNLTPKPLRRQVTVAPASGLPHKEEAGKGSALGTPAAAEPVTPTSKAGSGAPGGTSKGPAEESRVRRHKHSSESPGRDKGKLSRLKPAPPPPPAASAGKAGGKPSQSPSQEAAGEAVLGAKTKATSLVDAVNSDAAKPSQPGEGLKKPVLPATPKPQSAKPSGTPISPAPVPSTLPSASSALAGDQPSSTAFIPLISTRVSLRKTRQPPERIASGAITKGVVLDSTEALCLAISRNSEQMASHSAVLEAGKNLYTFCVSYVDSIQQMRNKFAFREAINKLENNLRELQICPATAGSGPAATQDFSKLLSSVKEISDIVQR

TBK1 = TBK1 (Homo sapiens, UniProt Q9UHD2); test: Kinase profiling (Reaction Biology): TBK1
Chain of TBK1 (Q9UHD2 whole entry): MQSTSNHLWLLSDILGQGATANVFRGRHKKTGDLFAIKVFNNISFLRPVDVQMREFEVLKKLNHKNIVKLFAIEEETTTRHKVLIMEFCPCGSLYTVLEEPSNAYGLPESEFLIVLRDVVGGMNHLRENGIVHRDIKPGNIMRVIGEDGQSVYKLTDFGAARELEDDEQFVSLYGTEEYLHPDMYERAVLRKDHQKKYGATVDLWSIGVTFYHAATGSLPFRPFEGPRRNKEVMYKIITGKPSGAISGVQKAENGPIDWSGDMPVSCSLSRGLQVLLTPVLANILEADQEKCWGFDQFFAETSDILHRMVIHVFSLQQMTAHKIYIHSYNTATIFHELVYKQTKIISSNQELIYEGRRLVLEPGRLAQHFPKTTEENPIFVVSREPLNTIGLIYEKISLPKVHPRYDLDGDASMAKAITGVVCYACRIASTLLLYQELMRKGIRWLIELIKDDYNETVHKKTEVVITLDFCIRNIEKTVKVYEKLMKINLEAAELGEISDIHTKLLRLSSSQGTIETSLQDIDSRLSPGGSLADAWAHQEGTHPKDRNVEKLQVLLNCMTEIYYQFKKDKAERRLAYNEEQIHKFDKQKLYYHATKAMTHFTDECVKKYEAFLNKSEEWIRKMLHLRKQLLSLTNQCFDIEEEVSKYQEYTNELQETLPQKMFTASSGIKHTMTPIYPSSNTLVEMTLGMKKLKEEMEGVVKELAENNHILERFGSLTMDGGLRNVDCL

ALK = ALK (Homo sapiens, UniProt Q9UM73); test: Kinase profiling (Reaction Biology): ALK
PLK2 = PLK2 (Homo sapiens, UniProt Q9NYY3); test: Kinase profiling (Reaction Biology): PLK2
RVFV-Luc (MP12) = test: microbe, parasite or virus in culture; type: cell-based; conditions: Rift Valley fever virus, Vero, 24 h, read-out: IC50, inhibition of RVFV
CK2a = CK2a (Homo sapiens, UniProt P68400); test: Kinase profiling (Reaction Biology): CK2a
[5] = test system: HIV DNA-transfected HEK293 cells; type: cell-based, HIV-1; conditions: different concentrations, 48 h
STK33 = STK33 (Homo sapiens, UniProt Q9BYT3); test: Kinase profiling (Reaction Biology): STK33
Chain of STK33 (Q9BYT3 whole entry): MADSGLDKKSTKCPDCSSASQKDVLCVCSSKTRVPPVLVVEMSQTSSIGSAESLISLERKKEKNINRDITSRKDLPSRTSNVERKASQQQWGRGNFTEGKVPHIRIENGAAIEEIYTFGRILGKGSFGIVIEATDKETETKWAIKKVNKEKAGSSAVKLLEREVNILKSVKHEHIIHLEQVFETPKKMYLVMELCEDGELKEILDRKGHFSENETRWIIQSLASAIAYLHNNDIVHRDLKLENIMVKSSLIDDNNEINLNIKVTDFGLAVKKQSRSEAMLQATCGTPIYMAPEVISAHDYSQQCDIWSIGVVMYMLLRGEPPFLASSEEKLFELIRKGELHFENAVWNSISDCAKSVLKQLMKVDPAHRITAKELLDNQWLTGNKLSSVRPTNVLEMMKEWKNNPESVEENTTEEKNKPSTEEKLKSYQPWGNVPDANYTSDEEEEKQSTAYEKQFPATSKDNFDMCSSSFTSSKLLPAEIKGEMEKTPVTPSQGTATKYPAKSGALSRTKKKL

COC(=O)c1ccc2[nH]c(C3CCN(c4ncnc5[nH]cc(Cl)c45)CC3)nc2c1 [Compound R10015, Methyl 2-(1-(5-chloro-7H-pyrrolo[2,3-d]pyrimidin-4-yl)piperidin-4-yl)-1H-benzo[d]imidazole-5-carboxylate]
viability at 100 µM (in vitro): 89.2%
drug toxicity (Vero cells): No drug toxicity
SDF-1-mediated actin polymerization (resting CD4 T cells): markedly depressed
activity at 1 µM (WEE1): 97.2%
activity at 1 µM (DAPK1): 87.8%
viral entry, HIV-1(Vpr-β-lactamase) (HIV-1(Vpr-β-lactamase)): did not significantly inhibit
viral late DNA synthesis (HIV-1(Env) [1]): inhibited
viral nuclear migration (2-LTR circles) (HIV-1(Env) [2]): inhibited
activity at 1 µM (EPHA3): 91.1%
p24 release (virion release) (HIV-1(Env) [3]): inhibited
activity at 1 µM (CK1d): 85%
activity at 1 µM (PDGFRb): 78.6%
inhibition of EBOV (EBOV (Zaire)): dose-dependent inhibition
inhibition of early steps of VSV G-pseudotyped HIV (HIV-1(VSV G)): minimally inhibited
Infectivity (percentage of GFP+ cells) (HIV-1(NL4-3); 100 μM, pretreated 1 h, HIV-1(NL4-3) 3 h, washed, 48 h, viable cells only, paired DMSO controls 1.76-3.37%): 0.43%
X4 HIV infection in screening (HIV-1(NL4-3); at nontoxic dosages, […], Fig. 1C and 2): blocked
activity at 1 µM (AKT2): 73.1%
activity at 1 µM (LIMK1): 6.4%
activity at 1 µM (EGFR): 93.2%
IC50 (Jurkat T cells): ~10 µM
IC50 [4]: ~5 µM
activity at 1 µM (RSK1): 47.2%
activity at 1 µM (TAK1): 82.4%
activity at 1 µM (FGFR1): 86.5%
viral entry, HIV-1(Nef-luciferase) (HIV-1(Nef-luciferase)): did not significantly inhibit
activity at 1 µM (MEK1): 75.6%
P-cofilin, lower gate (cells staining low) (p-cofilin): 80%
activity at 1 µM (PAK2): 98.2%
activity at 1 µM (PIM2): 97.6%
activity at 1 µM (CAMK2b): 90.8%
activity at 1 µM (ABL1): 89.2%
activity at 1 µM (TBK1): 82%
activity at 1 µM (ALK): 95.5%
activity at 1 µM (PLK2): 103%
IC50 (RVFV-Luc (MP12)): ~12.5 µM
activity at 1 µM (CK2a): 94.2%
virion release from HIV DNA-transfected HEK293 cells [5]: inhibited
activity at 1 µM (STK33): 56.5%
